Data on 3 compounds can be found in patent US20100093706A1, “MULTIMEDIATOR TRANSPORTER INHIBITORS FOR USE IN TREATMENT OF CENTRAL NERVOUS SYSTEM DISORDERS” (priority 2006, published 2010).

In one data set the target is β1-adrenergic receptor (Homo sapiens, UniProt P08588). Kind of data set: in vitro selectivity panel, β1-adrenergic receptor. The class given is binding. The method, then:
(§1) The in vitro selectivity profile of two representative subject compounds, (3) and (1), are also tested against a panel of other receptors, including the M1 receptor, Histamine H1 receptor, sigma-1 (σ1) receptor, β1-adrenergic receptor, and dopamine D2 receptor. Representative results are listed below in Table III: […]

A further data set has as its target T1, DAT (SLC6A3) (Homo sapiens, UniProt Q01959).
T1 construct: expressed in transfected cells
Put plainly: in vitro inhibition profile, IC50 of DAT (uptake assay). The class given is cell-based. The following applies: for fold selectivity of DAT against related receptors (NET, 5-HT): from Table II IC50. The method, then:
Before the assay, cells expressing DAT are washed once with KRH and equilibrated for 5 min. The cells may be assayed in 24-well plates and incubated for 2-5 min. with tritiated amines. Nontransported inhibitors were preincubated for 5 min, and substrates were applied together with the tritiated substrate.
Experiments to determine the ionic requirements for DAT-mediated uptake are done in KRH buffer, substituting LiCl or choline Cl for NaCl (sodium-dependence) or substituting D-gluconates for NaCl and KCl, and Ca(NO3)2 for CaCl2 (chloride dependence). Cells are washed twice with sodium- or chloride-free KRH before the assay (each wash step at least 5 min). In all transport assays, incubation periods and substrate concentrations are chosen such that uptake obeyed first-order rate kinetics.
Vmax values for amine uptake in stable transfected DAT-cells are determined in parallel assays for at least two amines per experiment and expressed as relative values.

The target of data set [1] is NET (norepinephrine transporter or SLC6A2) (Homo sapiens, UniProt P23975). Put plainly: cell-based.
In another data set the target is 5-HT (Homo sapiens, UniProt P31645). Put plainly: cell-based.
A further data set concerns the target DAT (r) (Rattus norvegicus, UniProt P23977). Put plainly: in vitro functional uptake, rat DAT. Format: cell-based.
For the next data set, the target named is Histamine H1 receptor (Homo sapiens, UniProt P35367). Put plainly: in vitro selectivity panel, Histamine H1 receptor. The class given is binding. The method, then:
as §1

Another data set addresses T2, M1 receptor (Homo sapiens, UniProt P11229).
T2 sequence (P11229 1-460): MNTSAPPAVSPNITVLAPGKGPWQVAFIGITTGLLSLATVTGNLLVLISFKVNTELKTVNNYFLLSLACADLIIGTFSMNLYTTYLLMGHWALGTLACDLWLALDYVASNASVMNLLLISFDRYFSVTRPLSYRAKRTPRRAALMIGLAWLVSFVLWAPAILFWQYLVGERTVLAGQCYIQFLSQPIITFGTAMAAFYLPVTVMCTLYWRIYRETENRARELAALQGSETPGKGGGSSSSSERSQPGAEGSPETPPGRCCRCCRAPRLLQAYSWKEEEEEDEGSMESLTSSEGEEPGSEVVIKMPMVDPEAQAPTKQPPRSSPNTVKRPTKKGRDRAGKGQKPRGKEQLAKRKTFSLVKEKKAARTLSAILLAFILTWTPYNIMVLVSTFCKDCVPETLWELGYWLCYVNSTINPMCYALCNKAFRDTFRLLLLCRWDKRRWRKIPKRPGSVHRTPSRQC
Put plainly: in vitro selectivity panel, M1 receptor. Format: binding. The method, then:
as §1

The next data set is described as follows: in vivo. The following applies: rat.
Another data set has as its target sigma-1 (σ1) receptor (Homo sapiens, UniProt Q99720). Put plainly: in vitro selectivity panel, sigma-1 receptor. Format: binding. The method, then: as §1
The target of a further data set is T3, NET (h) (Homo sapiens, UniProt P23975).
T3 construct: expressed in transfected cells; host or cells: MDCK
Put plainly: cell-based. The class given is cell-based. The following applies: read-out: NET (h) in vitro functional uptake. The method, then: (§2) Functional activity of the compounds was determined in vitro in cellular assays using recombinant human cell lines.

Another data set addresses T4, DAT (h) (Homo sapiens, UniProt Q01959).
T4 construct: expressed in transfected cells
Put plainly: cell-based. The class given is cell-based. The method, then:
as §2

In the next data set the target is T5, 5-HT (h) (Homo sapiens, UniProt P31645).
T5 construct: expressed in transfected cells; host or cells: HEK-293
Put plainly: cell-based. The following applies: read-out: 5-HT (h) in vitro functional uptake. The class given is cell-based. The method, then:
as §2

A further data set deals with dopamine D2 receptor (Homo sapiens, UniProt P14416). Kind of data set: in vitro selectivity panel, dopamine D2 receptor. The class given is binding. The method, then:
as §1

A further data set relates to rats. Put plainly: forced swim test (behavioral despair assay) in rats. Format: in vivo. The following applies: rat, i.p., racemic mixtures of diastereomers. The method, then: In vivo efficacy of several illustrative inhibitors of the instant invention, (1), (3), and (4), were measured using standard forced swim test model using rat. The objective of this study was to assess the antidepressant effects of test compounds in the behavioral despair assay in rats using a modification of a method described by Porsolt R. D. et al. in Behavioural despair in rats: a new model sensitive to antidepressant treatment, Eur. J. Pharmacol., 47: 379-391, 1978; Porsolt et al., Nature 266: 730-732, 1977; and Porsolt et al., in Psychopharmacology, Olivier, Mos, and Slangen (eds) Birkhäuser Verlag, Basel, pp. 137-159, 1991. Briefly, when mice (or rats) are forced to swim in a cylinder from which no escape is possible, they readily adopt a characteristic immobile posture and make no further attempts to escape except for small movements needed to keep floating. The immobility is considered by some to reflect a “depressive mood” (Porsolt et al., Nature 266: 730-732, 1977) in which animals cease to struggle to escape the aversive situation. The immobility induced by the procedure is influenced by a wide variety of antidepressants (Porsolt et al., in Psychopharmacology, Olivier, Mos, and Slangen (eds) Birkhauser Verlag, Basel, pp. 137-159, 1991) and has a good predictive validity in that it detects antidepressants with different mechanisms of action (TCAs, SSRIs, MAOIs, and other atypical ones). The test is sensitive to muscle-relaxant (benzodiazepines) and sedative (neuroleptics) effects, leading to enhanced immobility (Porsolt et al., supra).
In a typical experiment, animals are placed singly into a cylinder (e.g. 46×30 cm) containing fresh water at about 20° C. for 6 minutes. The activity (or immobility) of the animal is measured by an observer minute by minute. In more detail, the animals were preconditioned in a pretest session, where the rats were individually forced to swim inside a vertical plexiglass cylinder containing water maintained at 19-20° C. After 15 minutes in the water, they were allowed to dry for […] in a heated enclosure. Twenty-four hours later, the compounds were administered either intraperitoneally or orally to the animals. One hour after administration of the test compound, animals were put back into the cylinder containing water. The total duration of immobility was measured during the last 4 minutes of a 6 minute test.
The results are expressed as the percentage of variation of the total duration of immobility calculated from the mean value of the vehicle-treated group (% variation=[(immobility duration of vehicle−immobility duration of test compound)/(immobility duration of vehicle)]×100%).
In order to measure the in vivo efficacy of inhibiting DAT in rats using an inhibitor of the instant invention, one test inhibitor ((1), (3), or (4)) was injected i.p. as racemic mixtures of diastereomers into the animals, at various-doses (e.g. 7.5 and […]). Sibutramine (2.0 and 2.5 mg/kg), Bupropion (7.5 and 10 mg/kg), and Imipramine (30 mg/kg) were similarly administered as controls. […] Asterisks indicate highly statistical significant results.
A fourth inhibitor, (6) was administered p.o. as a racemic mixture of diastereomers at either 35 or 75 mg/kg. Sibutramine (5.0 and 3.75 mg/kg), Bupropion (30 and 40 mg/kg), and Imipramine (100 mg/kg) were similarly administered as controls.
Similarly, (1) was also administered p.o. as a racemic mixture of enriched (95:5) diastereomer at either 35 or 75 mg/kg. […]

The target of a further data set is T6, DAT (Homo sapiens, UniProt Q01959).
T6 construct: expressed in transfected cells; host or cells: CHO-K1
The following applies: human recombinant CHO-K1 cells; historical value (MDS Pharma Services); read-out: KD of radioligand, DAT assay; cited from earlier work.

For another data set, the target named is T7, NET (Homo sapiens, UniProt P23975).
T7 construct: expressed in transfected cells; host or cells: MDCK
The following applies: human recombinant MDCK cells; historical value (MDS Pharma Services); read-out: KD of radioligand, NET assay; cited from earlier work.

Like-named read-outs stand apart in the source and are kept apart here.

T4 sequence (Q01959 whole entry): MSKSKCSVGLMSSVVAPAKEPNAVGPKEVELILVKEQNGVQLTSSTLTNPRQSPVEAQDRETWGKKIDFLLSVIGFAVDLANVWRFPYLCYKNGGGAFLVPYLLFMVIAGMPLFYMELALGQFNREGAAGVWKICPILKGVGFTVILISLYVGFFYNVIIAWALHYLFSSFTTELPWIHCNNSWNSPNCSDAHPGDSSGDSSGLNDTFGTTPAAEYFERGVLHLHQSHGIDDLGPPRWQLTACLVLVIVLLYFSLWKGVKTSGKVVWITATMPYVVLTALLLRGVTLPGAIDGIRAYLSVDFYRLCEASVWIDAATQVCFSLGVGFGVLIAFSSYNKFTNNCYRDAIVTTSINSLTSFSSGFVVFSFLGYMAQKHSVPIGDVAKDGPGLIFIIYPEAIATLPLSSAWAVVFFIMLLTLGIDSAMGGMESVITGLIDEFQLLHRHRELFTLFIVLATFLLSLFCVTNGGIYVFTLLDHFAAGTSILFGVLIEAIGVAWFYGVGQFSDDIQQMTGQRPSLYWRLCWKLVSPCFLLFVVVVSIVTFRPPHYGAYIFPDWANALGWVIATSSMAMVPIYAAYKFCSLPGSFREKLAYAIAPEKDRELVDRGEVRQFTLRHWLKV
T1 sequence (Q01959 whole entry): as above
Chain of NET (norepinephrine transporter or SLC6A2) (P23975 whole entry): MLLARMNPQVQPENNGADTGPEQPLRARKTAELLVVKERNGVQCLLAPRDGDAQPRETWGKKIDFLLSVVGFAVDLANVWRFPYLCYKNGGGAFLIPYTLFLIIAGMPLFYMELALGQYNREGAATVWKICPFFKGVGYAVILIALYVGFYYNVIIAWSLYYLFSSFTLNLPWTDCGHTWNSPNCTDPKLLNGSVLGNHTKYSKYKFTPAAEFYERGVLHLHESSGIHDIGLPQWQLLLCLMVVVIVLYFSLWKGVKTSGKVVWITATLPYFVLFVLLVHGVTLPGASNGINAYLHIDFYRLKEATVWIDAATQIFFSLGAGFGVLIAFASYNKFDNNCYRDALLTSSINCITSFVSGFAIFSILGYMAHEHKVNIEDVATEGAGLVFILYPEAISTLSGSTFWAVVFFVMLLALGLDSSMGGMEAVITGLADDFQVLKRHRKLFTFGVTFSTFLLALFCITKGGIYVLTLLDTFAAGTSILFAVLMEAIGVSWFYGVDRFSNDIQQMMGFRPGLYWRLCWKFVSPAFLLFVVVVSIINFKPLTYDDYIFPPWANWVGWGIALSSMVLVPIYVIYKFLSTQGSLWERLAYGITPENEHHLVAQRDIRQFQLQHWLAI
Chain of 5-HT (P31645 whole entry): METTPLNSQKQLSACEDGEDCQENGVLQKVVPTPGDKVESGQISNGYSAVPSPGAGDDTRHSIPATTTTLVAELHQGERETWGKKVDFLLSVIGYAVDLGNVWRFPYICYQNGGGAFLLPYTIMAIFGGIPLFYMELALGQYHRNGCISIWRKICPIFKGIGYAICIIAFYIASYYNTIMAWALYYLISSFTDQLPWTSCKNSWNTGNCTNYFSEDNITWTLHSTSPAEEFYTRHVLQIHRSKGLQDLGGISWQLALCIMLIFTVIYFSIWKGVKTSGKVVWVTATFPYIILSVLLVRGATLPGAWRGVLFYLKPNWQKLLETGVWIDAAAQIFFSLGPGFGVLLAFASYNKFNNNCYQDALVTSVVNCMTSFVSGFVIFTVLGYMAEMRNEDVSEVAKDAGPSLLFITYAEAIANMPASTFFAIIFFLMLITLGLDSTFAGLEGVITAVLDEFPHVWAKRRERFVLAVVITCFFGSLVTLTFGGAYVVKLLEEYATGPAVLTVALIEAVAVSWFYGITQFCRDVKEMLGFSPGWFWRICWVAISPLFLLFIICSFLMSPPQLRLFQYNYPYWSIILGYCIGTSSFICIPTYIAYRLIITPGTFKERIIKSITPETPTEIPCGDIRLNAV
Chain of DAT (r) (P23977 whole entry): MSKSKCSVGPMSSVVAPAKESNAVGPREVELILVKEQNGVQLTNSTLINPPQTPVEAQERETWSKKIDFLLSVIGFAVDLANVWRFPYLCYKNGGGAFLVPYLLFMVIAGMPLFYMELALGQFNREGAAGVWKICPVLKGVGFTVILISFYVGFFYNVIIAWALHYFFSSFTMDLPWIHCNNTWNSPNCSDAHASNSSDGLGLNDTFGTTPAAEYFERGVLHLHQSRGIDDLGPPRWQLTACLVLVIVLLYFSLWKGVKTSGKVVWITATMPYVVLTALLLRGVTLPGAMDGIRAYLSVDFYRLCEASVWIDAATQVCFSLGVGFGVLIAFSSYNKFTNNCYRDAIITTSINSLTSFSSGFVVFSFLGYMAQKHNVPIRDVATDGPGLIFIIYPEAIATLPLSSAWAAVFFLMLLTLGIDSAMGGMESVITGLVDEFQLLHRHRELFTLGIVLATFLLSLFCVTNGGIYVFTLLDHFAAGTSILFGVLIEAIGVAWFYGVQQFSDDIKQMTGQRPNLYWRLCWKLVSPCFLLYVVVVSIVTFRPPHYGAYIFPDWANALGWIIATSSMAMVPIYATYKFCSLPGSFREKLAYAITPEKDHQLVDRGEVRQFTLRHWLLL
T3 sequence (P23975 whole entry): as the sequence (P23975 whole entry) above
T7 sequence (P23975 whole entry): as above
Chain of β1-adrenergic receptor (P08588 whole entry): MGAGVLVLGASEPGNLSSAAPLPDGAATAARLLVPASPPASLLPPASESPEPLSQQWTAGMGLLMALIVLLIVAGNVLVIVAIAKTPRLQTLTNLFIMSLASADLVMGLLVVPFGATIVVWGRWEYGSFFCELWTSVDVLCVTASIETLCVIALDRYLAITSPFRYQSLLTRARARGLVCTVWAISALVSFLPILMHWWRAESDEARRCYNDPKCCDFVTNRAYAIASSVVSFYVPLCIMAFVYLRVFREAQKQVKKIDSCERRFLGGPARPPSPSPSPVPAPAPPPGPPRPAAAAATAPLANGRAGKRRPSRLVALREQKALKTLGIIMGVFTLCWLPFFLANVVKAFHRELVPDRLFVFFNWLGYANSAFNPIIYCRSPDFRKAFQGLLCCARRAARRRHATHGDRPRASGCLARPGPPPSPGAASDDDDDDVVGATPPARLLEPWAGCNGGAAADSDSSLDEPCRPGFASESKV
Chain of Histamine H1 receptor (P35367 whole entry): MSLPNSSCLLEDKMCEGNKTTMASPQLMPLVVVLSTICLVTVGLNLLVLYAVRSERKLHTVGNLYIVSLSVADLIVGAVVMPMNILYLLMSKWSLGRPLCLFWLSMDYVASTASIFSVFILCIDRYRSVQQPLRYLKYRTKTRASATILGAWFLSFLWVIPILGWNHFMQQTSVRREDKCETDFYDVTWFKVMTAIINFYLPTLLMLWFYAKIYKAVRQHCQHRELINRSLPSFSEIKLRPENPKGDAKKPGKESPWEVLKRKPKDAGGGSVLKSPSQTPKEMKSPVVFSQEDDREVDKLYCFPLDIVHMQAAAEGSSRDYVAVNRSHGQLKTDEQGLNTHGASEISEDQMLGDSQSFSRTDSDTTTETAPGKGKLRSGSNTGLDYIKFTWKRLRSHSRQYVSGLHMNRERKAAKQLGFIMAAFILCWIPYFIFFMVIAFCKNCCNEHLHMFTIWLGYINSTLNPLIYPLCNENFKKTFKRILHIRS
T5 sequence (P31645 whole entry): as the sequence (P31645 whole entry) above
T6 sequence (Q01959 whole entry): as the sequence (Q01959 whole entry) above
Chain of sigma-1 (σ1) receptor (Q99720 whole entry): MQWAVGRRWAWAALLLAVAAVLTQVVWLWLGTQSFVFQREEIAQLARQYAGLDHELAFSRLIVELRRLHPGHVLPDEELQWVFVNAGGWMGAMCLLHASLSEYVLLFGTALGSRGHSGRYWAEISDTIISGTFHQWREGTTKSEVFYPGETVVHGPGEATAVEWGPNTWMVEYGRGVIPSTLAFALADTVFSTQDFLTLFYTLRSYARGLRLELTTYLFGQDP
Chain of dopamine D2 receptor (P14416 whole entry): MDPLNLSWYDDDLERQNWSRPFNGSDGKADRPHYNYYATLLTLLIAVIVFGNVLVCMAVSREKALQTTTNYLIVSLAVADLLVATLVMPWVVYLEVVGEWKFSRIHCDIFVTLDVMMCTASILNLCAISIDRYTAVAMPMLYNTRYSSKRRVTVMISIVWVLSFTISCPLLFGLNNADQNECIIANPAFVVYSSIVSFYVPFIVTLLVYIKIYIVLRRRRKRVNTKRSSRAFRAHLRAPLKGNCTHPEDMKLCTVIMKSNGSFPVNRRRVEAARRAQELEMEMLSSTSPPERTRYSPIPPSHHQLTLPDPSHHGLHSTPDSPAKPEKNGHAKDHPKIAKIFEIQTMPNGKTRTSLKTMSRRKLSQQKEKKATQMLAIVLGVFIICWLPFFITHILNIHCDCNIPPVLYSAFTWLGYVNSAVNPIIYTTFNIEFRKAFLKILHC

The term IC50 denotes the concentration that gives 50% inhibition. High values mean weaker potency, low ones greater potency. Usually Vd stands for the apparent volume that relates the amount in the body to the concentration in plasma or blood. One may read the half-life as the time needed for the level to fall by half in the phase considered. What is called bioavailability is dose-corrected exposure relative to a reference, in per cent. A lower bioavailability goes with poor availability. Turning to `CC1CCC(COc2ccc(C(F)(F)F)cc2)CN1CC1(c2ccc(Cl)cc2)CCC1` (centres unmarked) [(3)], the “β1-adrenergic (nM)h” value on β1-adrenergic receptor is recorded as 5000 nM. For the same compound, the values for the IC50 (against DAT (SLC6A3); in [1]; on 5-HT) were 1 nM, 150 nM and 550 nM, respectively. In addition, the “fold selectivity of DAT against related receptors (NET, 5-HT)” value at DAT (SLC6A3) was 150-550 fold. In addition, the EC50 at DAT (r) worked out at 50 nM; at NET (h) it was 200 nM; on DAT (h) it was 1 nM; on 5-HT (h), 825 nM. For the same compound, the “Histamine H1 (nM)h” value on Histamine H1 receptor amounted to 5000 nM. Also, on M1 receptor, the “M1 (nM)h” value was found to be 5000 nM. Besides, in the data set “in vivo”, the Vd was 10 L/kg. The half-life in “in vivo” (iv) is 8.33 h. Further, the bioavailability in the data set “in vivo” (po) was found to be 70%. Besides, the “Sigma σ1 (nM)h” value on sigma-1 (σ1) receptor was 5000 nM. On DAT (h), the “selectivity for DAT over 5-HT” value worked out at 825 fold. Also, at DAT (h), the “selectivity for DAT over NET” value amounted to 200 fold. Further, the “D2 (nM)h” value at dopamine D2 receptor was 1000 nM. Besides, the “forced swim test efficacy versus commercial drugs (FIG. 1)” value with rats was “performed equally well, if not better, than the commercial drugs Sibutramine, Bupropion, and Imipramine”.
In the case of `CC1C(COc2ccc(C(F)(F)F)cc2)CCCN1CC1(c2ccc(Cl)cc2)CCC1` (centres unmarked) [(5)], at DAT (SLC6A3), half-maximal inhibition (IC50) required 5 nM and the “fold selectivity of DAT against related receptors (NET, 5-HT)” value was 174-2,000 fold. The compound further came in with a 50% inhibitory concentration (IC50) in [1] of 870 nM. The same compound gave an IC50 at 5-HT of 10000 nM. In addition, the EC50 at DAT (r) (rat, unit inferred, read-out: DAT (r) in vitro functional uptake) came to 300 nM. Further, on DAT (h), the EC50 was 5 nM, the “selectivity for DAT over 5-HT” value is 1000 fold and the “selectivity for DAT over NET” value came to 1000 fold.
For orientation: Kd means the constant that tells how readily two partners part at equilibrium. For `COC(=O)[C@H]1[C@@H](c2ccc(I)cc2)C[C@@H]2CC[C@H]1N2C` [[^125I] RTI-55], the dissociation constant (Kd) on DAT was 0.58 nM; on NET it was 24 nM.
